In ChEMBL document CHEMBL1909493, “Synthesis and biological evaluation of novel analogues of the pan class I phosphatidylinositol 3-kinase (PI3K) inhibitor 2-(difluoromethyl)-1-[4,6-di(4-morpholinyl)-1,3,5-triazin-2-yl]-1H-benzimidazole (ZSTK474)” (J Med Chem, 2011):
Converted amounts (≈) assume the structure as drawn.

How the values were obtained:
[1] = Inhibition of bovine recombinant PI3K p110delta expressed in Sf21 insect cells using phosphatidylinositol as substrate after 1 hr by phosphoimaging; parameters: species or system Bos taurus
[2] = molecular target: Phosphatidylinositol 4,5-bisphosphate 3-kinase catalytic subunit beta isoform (Homo sapiens, UniProt P42338); assay: Inhibition of human recombinant PI3K p110beta expressed in Sf21 insect cells using phosphatidylinositol as substrate after 1 hr by phosphoimaging
Sequence of Phosphatidylinositol 4,5-bisphosphate 3-kinase catalytic subunit beta isoform (P42338 whole entry, canonical isoform): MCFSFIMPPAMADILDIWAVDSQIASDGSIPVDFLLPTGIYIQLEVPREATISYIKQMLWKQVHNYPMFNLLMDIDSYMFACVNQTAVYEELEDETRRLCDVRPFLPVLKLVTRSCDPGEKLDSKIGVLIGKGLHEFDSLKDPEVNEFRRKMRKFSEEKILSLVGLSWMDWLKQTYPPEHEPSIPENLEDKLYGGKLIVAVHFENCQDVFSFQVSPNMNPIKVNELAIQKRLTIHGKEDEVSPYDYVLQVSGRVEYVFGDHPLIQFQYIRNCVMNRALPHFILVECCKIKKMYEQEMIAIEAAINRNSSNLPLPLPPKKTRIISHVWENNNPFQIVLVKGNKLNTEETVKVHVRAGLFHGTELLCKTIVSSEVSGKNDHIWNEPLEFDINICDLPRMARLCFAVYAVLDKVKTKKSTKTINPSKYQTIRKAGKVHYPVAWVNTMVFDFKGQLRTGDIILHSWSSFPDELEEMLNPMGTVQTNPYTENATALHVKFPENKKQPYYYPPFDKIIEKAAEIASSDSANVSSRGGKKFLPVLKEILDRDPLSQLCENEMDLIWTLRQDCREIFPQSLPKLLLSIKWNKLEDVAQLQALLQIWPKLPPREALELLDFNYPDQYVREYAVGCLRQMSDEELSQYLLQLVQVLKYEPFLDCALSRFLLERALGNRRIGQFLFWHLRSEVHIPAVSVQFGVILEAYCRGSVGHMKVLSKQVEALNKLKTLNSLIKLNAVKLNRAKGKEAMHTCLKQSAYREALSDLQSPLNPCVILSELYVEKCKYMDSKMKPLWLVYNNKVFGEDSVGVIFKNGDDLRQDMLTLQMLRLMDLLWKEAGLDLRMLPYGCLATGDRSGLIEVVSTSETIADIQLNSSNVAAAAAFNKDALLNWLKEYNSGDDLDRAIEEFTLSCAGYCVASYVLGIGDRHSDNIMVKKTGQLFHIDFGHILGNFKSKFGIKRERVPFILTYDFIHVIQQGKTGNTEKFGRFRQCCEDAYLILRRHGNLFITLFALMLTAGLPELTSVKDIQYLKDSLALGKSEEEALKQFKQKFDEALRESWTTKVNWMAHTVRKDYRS

[3] = molecular target: Phosphatidylinositol 4,5-bisphosphate 3-kinase catalytic subunit alpha isoform (Mus musculus, UniProt P42337); assay: Inhibition of mouse recombinant PI3K p110alpha expressed in Sf21 insect cells using phosphatidylinositol as substrate after 1 hr by phosphoimaging
Sequence of Phosphatidylinositol 4,5-bisphosphate 3-kinase catalytic subunit alpha isoform (Mus musculus, UniProt P42337) (P42337 whole entry, canonical isoform): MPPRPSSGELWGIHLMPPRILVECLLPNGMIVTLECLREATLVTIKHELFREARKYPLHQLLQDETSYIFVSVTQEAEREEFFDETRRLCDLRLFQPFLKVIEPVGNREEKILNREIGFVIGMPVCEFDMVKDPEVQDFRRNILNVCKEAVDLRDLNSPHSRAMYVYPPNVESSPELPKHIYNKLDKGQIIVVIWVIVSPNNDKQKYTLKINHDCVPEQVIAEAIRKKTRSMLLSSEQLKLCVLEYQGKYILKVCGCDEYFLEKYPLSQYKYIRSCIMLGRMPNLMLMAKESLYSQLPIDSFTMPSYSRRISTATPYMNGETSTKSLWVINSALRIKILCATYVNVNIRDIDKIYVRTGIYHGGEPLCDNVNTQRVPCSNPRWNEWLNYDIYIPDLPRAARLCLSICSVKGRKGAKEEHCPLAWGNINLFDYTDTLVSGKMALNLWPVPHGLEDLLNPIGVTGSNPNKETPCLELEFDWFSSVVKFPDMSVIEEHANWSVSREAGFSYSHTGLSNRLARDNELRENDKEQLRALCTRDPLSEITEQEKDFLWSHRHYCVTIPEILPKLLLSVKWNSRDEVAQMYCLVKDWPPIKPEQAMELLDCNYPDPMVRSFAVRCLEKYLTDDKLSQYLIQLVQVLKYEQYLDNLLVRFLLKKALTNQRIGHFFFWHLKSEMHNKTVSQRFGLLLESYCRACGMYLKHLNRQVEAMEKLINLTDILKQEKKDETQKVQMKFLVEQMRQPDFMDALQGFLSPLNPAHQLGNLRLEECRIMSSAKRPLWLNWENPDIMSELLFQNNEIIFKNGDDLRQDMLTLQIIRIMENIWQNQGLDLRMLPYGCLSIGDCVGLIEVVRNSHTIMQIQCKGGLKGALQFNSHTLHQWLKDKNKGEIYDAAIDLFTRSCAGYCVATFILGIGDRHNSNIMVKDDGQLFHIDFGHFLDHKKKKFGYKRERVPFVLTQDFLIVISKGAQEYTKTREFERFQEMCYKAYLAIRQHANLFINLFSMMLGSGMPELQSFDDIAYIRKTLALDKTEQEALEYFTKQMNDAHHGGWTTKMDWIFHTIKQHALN

cells [4] = settings: Homo sapiens, NZOV9
cells [5] = settings: Homo sapiens, NZB5
[6] = molecular target: T1, Phosphatidylinositol 4,5-bisphosphate 3-kinase catalytic subunit alpha isoform (Homo sapiens, UniProt P42336); assay: Inhibition of PIK3CA-mediated cell signaling in PTEN-deficient human U87MG cells assessed as inhibition of insulin-induced pAkt/PKB phosphorylation at Thr308 treated for 15 mins before insulin challenge measured after 5 mins by immunoblotting; format: cell-based, U-87MG ATCC
T1 sequence (P42336 whole entry, canonical isoform): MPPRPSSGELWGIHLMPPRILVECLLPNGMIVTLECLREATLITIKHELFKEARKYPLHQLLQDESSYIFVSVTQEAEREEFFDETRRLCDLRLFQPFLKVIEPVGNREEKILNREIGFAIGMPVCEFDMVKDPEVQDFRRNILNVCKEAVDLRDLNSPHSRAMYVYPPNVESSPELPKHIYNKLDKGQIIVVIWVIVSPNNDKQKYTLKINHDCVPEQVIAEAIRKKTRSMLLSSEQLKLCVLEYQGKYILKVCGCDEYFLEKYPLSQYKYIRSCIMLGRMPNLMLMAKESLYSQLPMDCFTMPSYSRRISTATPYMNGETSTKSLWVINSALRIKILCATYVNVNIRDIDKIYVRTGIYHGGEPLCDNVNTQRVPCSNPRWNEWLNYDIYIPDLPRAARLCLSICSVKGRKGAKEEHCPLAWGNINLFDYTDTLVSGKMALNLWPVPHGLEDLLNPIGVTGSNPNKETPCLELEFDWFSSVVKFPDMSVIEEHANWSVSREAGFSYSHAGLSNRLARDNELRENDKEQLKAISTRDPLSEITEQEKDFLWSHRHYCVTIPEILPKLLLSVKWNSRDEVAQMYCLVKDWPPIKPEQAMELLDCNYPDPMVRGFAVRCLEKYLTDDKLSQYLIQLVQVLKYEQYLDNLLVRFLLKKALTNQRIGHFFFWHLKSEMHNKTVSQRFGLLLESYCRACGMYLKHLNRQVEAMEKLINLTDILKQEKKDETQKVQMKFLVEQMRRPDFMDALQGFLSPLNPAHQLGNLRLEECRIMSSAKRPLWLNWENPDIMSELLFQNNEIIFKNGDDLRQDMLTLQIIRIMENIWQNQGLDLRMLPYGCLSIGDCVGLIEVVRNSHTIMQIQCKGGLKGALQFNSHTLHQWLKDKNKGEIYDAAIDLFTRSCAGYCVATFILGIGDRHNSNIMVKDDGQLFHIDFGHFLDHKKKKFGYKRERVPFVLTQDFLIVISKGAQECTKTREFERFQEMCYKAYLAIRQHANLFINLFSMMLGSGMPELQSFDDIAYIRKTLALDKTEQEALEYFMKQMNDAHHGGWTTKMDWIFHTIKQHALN

[7] = molecular target: T1, Phosphatidylinositol 4,5-bisphosphate 3-kinase catalytic subunit alpha isoform; assay: Inhibition of PIK3CA-mediated cell signaling in PTEN-deficient human U87MG cells assessed as inhibition of insulin-induced pAkt/PKB phosphorylation at Ser473 treated for 15 mins before insulin challenge measured after 5 mins by immunoblotting; format: cell-based, U-87MG ATCC
cells [8] = settings: Homo sapiens, HCT-116
cells [9] = settings: Homo sapiens, HCT-116; remark: listed apart in the source
[10] = Aqueous solubility of the compound in water after 15 mins by HPLC analysis; settings: aqueous medium

| Compound | IC50 [1] [nM] | IC50 [2] [nM] | IC50 [3] [nM] | IC50 (cells [4]) [nM] | IC50 (cells [5]) [nM] | IC50 [6] [nM] | IC50 [7] [nM] | IC50 (cells [8]) [nM] | IC50 (cells [9]) [nM] | solubility at […] [10] [µg/mL] |
| --- | --- | --- | --- | --- | --- | --- | --- | --- | --- | --- |
| CCCOc1cccc2c1nc(C(F)F)n2-c1nc(N2CCOCC2)nc(N2CCOCC2)n1 | 95 | 518 | 16 | 50 | 70 |  |  |  |  |  |
| c1ccc2c(c1)ncn2-c1nc(N2CCOCC2)nc(N2CCOCC2)n1 | 142 | 1540 | 265 | 300 | 1500 |  |  |  |  |  |
| Cc1nc2ccccc2n1-c1nc(N2CCOCC2)nc(N2CCOCC2)n1 | 35 | 289 | 143 | 600 | 280 |  |  |  |  |  |
| FCc1nc2ccccc2n1-c1nc(N2CCOCC2)nc(N2CCOCC2)n1 | 13 | 53 | 34 | 350 | 390 |  |  |  |  |  |
| FC(F)(F)c1nc2ccccc2n1-c1nc(N2CCOCC2)nc(N2CCOCC2)n1 | 70 | 461 | 202 | 700 | 900 |  |  |  |  |  |
| OCc1nc2ccccc2n1-c1nc(N2CCOCC2)nc(N2CCOCC2)n1 | 5470 | > 1000 | > 1000 | 5500 | 750 |  |  |  |  |  |
| CSCc1nc2ccccc2n1-c1nc(N2CCOCC2)nc(N2CCOCC2)n1 | 41 | 39 | 170 | 86 | 83 |  |  |  |  |  |
| C[S+]([O-])Cc1nc2ccccc2n1-c1nc(N2CCOCC2)nc(N2CCOCC2)n1 (centres undefined) | 35 | 230 | 590 | 490 | 400 |  |  |  |  |  |
| CS(=O)(=O)Cc1nc2ccccc2n1-c1nc(N2CCOCC2)nc(N2CCOCC2)n1 | 54 | 250 | 480 | 440 | 250 |  |  |  |  |  |
| CSc1nc2ccccc2n1-c1nc(N2CCOCC2)nc(N2CCOCC2)n1 | 270 | > 1000 | 2900 | 200 | 200 |  |  |  |  |  |
| CS(=O)(=O)c1nc2ccccc2n1-c1nc(N2CCOCC2)nc(N2CCOCC2)n1 | 76 | 383 | 203 | 2000 | 10000 |  |  |  |  |  |
| COc1cccc2c1nc(C(F)F)n2-c1nc(N2CCOCC2)nc(N2CCOCC2)n1 | 3.9 | 25 | 2.7 | 10 | 50 | 28 | 55 | 25 | 37 | 0.08 (≈ 0.179 µM) |
| CCOc1cccc2c1nc(C(F)F)n2-c1nc(N2CCOCC2)nc(N2CCOCC2)n1 | 5.5 | 104 | 2.7 | 40 | 70 |  |  |  |  |  |
| CCCCOc1cccc2c1nc(C(F)F)n2-c1nc(N2CCOCC2)nc(N2CCOCC2)n1 | 156 | 2400 |  | 210 | 230 |  |  |  |  |  |
| CC(C)Oc1cccc2c1nc(C(F)F)n2-c1nc(N2CCOCC2)nc(N2CCOCC2)n1 | 430 | 2100 | 364 | 280 | 70 |  |  |  |  |  |
| CS(=O)(=O)Oc1cccc2c1nc(C(F)F)n2-c1nc(N2CCOCC2)nc(N2CCOCC2)n1 | 158 | 570 | 294 | 130 | 170 |  |  |  |  |  |
| Nc1cccc2c1nc(C(F)F)n2-c1nc(N2CCOCC2)nc(N2CCOCC2)n1 | 0.85 | 41 | 4.8 | 80 | 50 |  |  |  |  |  |
| CNc1cccc2c1nc(C(F)F)n2-c1nc(N2CCOCC2)nc(N2CCOCC2)n1 | 67 | 480 | 210 | 260 | 110 |  |  |  |  |  |
| CN(C)c1cccc2c1nc(C(F)F)n2-c1nc(N2CCOCC2)nc(N2CCOCC2)n1 | 539 | > 1000 | 5400 | 2540 | 60 |  |  |  |  |  |
| OCc1cccc2c1nc(C(F)F)n2-c1nc(N2CCOCC2)nc(N2CCOCC2)n1 | 12 | 68 | 27 | 170 | 300 |  |  |  |  |  |

| Compound | IC50 [1] [nM] | IC50 [2] [nM] | IC50 [3] [nM] | IC50 (cells [4]) [nM] | IC50 (cells [5]) [nM] | IC50 [6] [nM] | IC50 [7] [nM] | IC50 (cells [8]) [nM] | IC50 (cells [9]) [nM] | solubility at […] [10] [µg/mL] |
| --- | --- | --- | --- | --- | --- | --- | --- | --- | --- | --- |
| COC(=O)c1cccc2c1nc(C(F)F)n2-c1nc(N2CCOCC2)nc(N2CCOCC2)n1 | 65 | 310 | 9.3 | 470 | 2800 |  |  |  |  |  |
| NC(=O)c1cccc2c1nc(C(F)F)n2-c1nc(N2CCOCC2)nc(N2CCOCC2)n1 | 1000 | > 1000 | > 1000 |  | 760 |  |  |  |  |  |
| CNC(=O)c1cccc2c1nc(C(F)F)n2-c1nc(N2CCOCC2)nc(N2CCOCC2)n1 | 1000 | > 1000 | 296 | 50 | 480 |  |  |  |  |  |
| CN(C)C(=O)c1cccc2c1nc(C(F)F)n2-c1nc(N2CCOCC2)nc(N2CCOCC2)n1 | > 1000 | > 1000 | > 1000 | 240 | 730 |  |  |  |  |  |
| N#Cc1cccc2c1nc(C(F)F)n2-c1nc(N2CCOCC2)nc(N2CCOCC2)n1 | 66 | > 1000 | 61 | > 20000 | > 20000 |  |  |  |  |  |
| FC(F)c1nc2c3c(ccc2n1-c1nc(N2CCOCC2)nc(N2CCOCC2)n1)OCO3 | 39 | 47 | 550 | 40 | 130 |  |  |  |  |  |
| COc1ccc2c(nc(C(F)F)n2-c2nc(N3CCOCC3)nc(N3CCOCC3)n2)c1OC | 258 | 801 | 335 | 36 | 20 |  |  |  |  |  |
| COc1c(O)ccc2c1nc(C(F)F)n2-c1nc(N2CCOCC2)nc(N2CCOCC2)n1 | 1.8 | 94 |  | 11 |  |  |  |  |  |  |
| COc1cc(OC)c2nc(C(F)F)n(-c3nc(N4CCOCC4)nc(N4CCOCC4)n3)c2c1 | 12.5 | 118 | 58 | 59 | 95 |  |  |  |  |  |
| CNc1cc(OC)c2nc(C(F)F)n(-c3nc(N4CCOCC4)nc(N4CCOCC4)n3)c2c1 | 0.52 | 0.91 | 2 | 16 | 390 |  |  |  |  |  |
| COc1cc(N(C)C)cc2c1nc(C(F)F)n2-c1nc(N2CCOCC2)nc(N2CCOCC2)n1 | 6.8 | 18.5 | 8 | 150 | 130 |  |  |  |  |  |
| COc1cncc2c1nc(C(F)F)n2-c1nc(N2CCOCC2)nc(N2CCOCC2)n1 | 1600 | 1030 | 1290 | 2600 | 5600 |  |  |  |  |  |
| FC(F)c1nc2ccccc2n1-c1nc(N2CCOCC2)cc(N2CCOCC2)n1 | 10 | 72 | 30 | 260 | 120 |  |  |  |  |  |
| Oc1cccc2c1nc(C(F)F)n2-c1nc(N2CCOCC2)cc(N2CCOCC2)n1 | 0.27 | 0.81 | 1.5 |  | 100 |  |  |  |  |  |
| COc1cccc2c1nc(C(F)F)n2-c1nc(N2CCOCC2)cc(N2CCOCC2)n1 | 18 | 35 | 5.1 | 30 | 60 |  |  |  |  |  |
| FC(F)c1nc2ccccc2n1-c1cc(N2CCOCC2)nc(N2CCOCC2)n1 | 13 | 170 | 88 | 300 |  |  |  |  |  |  |
| COc1cccc2c1nc(C(F)F)n2-c1cc(N2CCOCC2)nc(N2CCOCC2)n1 | 14 | 40 | 4 |  |  |  |  |  |  |  |
| CS(=O)(=O)O.Cn1c(=O)n(-c2ccc(C(C)(C)C#N)cc2)c2c3cc(-c4cnc5ccccc5c4)ccc3ncc21 |  |  |  |  |  |  |  |  |  | 11.3 |
| COc1cc(N)cc2c1nc(C(F)F)n2-c1nc(N2CCOCC2)nc(N2CCOCC2)n1.CS(=O)(=O)O |  |  |  |  |  |  |  |  |  | 4.2 |
